Reference: ChEMBL document CHEMBL1143710, “Synthesis, antifungal and antimicrobial activity of alkylphospholipids” (Bioorg Med Chem, 2007)
Values after ≈ are worked out from the molar mass of the structure shown. Active and inactive are the calls of the source. The calls are words filed in the database; no cut-off is given here.

Key:
Cryptococcus neoformans = assay: Antifungal activity against Cryptococcus neoformans ATCC 90112; format: functional
Candida albicans = assay: Antifungal activity against Candida albicans ATCC 10231; format: functional
[1] = Toxicity assessed as haemolytic activity against human erythrocytes at 350 uM; format: cell-based, Erythrocyte; conditions: read-out: Activity
[2] = Toxicity assessed as haemolytic activity against human erythrocytes at 175 uM; format: cell-based, Erythrocyte; conditions: read-out: Activity
[3] = Toxicity assessed as haemolytic activity against human erythrocytes at 88 uM; format: cell-based, Erythrocyte; conditions: read-out: Activity
[4] = Toxicity assessed as haemolytic activity against human erythrocytes at 44 uM; format: cell-based, Erythrocyte; conditions: read-out: Activity
[5] = Toxicity assessed as haemolytic activity against human erythrocytes at 17.5 uM; format: cell-based, Erythrocyte; conditions: read-out: Activity
[6] = Toxicity assessed as haemolytic activity against human erythrocytes at 3.5 uM; format: cell-based, Erythrocyte; conditions: read-out: Activity
Escherichia coli = assay: Antibacterial activity against Escherichia coli ATCC 25922 after 24 hrs; format: functional; conditions: ATCC 25922, 24 h
Staphylococcus aureus [7] = assay: Antibacterial activity against Staphylococcus aureus ATCC 25923 after 24 hrs; format: functional; conditions: ATCC 25923, 24 h
Staphylococcus aureus [8] = assay: Antibacterial activity against methicillin-resistant Staphylococcus aureus after 24 hrs; format: functional
Enterococcus = assay: Antibacterial activity against vancomycin-resistant Enterococcus ATCC 51299 after 24 hrs; format: functional; conditions: ATCC 51299, 24 h
[9] = molecular target: T1, Phospholipase B (Cryptococcus neoformans) (UniProt Q9P8P2); assay: Inhibition of phospholipase B activity of Cryptococcus neoformans var. grubi H99 secreted PLB1 by radiometric assay method
T1 sequence (whole entry): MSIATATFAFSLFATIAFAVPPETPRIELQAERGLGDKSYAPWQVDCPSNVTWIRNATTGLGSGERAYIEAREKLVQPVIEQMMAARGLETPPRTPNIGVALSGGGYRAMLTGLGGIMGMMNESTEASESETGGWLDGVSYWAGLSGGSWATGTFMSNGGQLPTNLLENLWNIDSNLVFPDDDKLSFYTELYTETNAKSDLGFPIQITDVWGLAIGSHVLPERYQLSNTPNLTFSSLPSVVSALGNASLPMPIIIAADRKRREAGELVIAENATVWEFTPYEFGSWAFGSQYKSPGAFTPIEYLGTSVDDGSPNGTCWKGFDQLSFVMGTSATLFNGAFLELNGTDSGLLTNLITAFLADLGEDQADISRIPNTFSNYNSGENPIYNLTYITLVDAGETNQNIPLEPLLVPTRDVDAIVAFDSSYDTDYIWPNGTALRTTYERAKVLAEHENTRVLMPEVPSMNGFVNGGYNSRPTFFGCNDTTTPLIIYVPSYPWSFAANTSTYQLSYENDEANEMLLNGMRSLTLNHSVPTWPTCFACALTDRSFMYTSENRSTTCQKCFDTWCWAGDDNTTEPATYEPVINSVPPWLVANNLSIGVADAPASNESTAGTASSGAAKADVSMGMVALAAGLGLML

[10] = molecular target: T1, Phospholipase B (Cryptococcus neoformans); assay: Inhibition of […] activity of Cryptococcus neoformans var. grubi H99 secreted PLB1 at 25 uM by radiometric assay method
[11] = molecular target: T1, Phospholipase B (Cryptococcus neoformans); assay: Inhibition of […] activity of Cryptococcus neoformans var. grubi H99 secreted PLB1 at 250 uM by radiometric assay method
[12] = molecular target: T1, Phospholipase B (Cryptococcus neoformans); assay: Inhibition of lysophosphatidic acid acyltransferase activity of Cryptococcus neoformans var. grubi H99 secreted PLB1 at 250 uM by radiometric assay method

Compound | MIC (Cryptococcus neoformans) | MIC (Candida albicans) | hemolysis at 350 µM [1] | hemolysis at 175 µM [2] | hemolysis at 88 µM [3] | hemolysis at 44 µM [4] | hemolysis at 17.5 µM [5] | hemolysis at 3.5 µM [6] | MIC (Escherichia coli) | MIC (Staphylococcus aureus [7]) | MIC (Staphylococcus aureus [8]) | MIC (Enterococcus) | Activity [9] | Activity [10] | Activity [11] | Activity [12]
C[N+](C)(C)CCOP(=O)([O-])OCCCCCC(=O)NC12CC3CC(CC(C3)C1)C2 | > 350 µM | > 350 µM |  |  |  |  |  |  |  |  |  |  |  |  |  | 
CCCCCCCC/C=C/CCCCCCCCOP(=O)([O-])OCC[N+](C)(C)C [ELAIDYLPHOSPHOCHOLINE] | 2.75 µM (≈ 1.19 µg/mL) | 2.75 µM (≈ 1.19 µg/mL) | 100% | 100% | 50% | 0% | 0% | 0% | > 350 µM | 22 µM (≈ 9.54 µg/mL) | 22 µM (≈ 9.54 µg/mL) | 22 µM (≈ 9.54 µg/mL) |  |  |  | 
CCCCCCCCCCCCOP(=O)([O-])OCC[N+](C)(C)C | 175 µM (≈ 61.5 µg/mL) | 350 µM (≈ 123 µg/mL) |  | 0% | 0% | 0% | 0% | 0% |  |  |  |  | inactive | inactive |  | 
CCCCCCCCCCCCCCCCCCOCC(COP(=O)([O-])OCC[N+](C)(C)C)OC (stereo not drawn) [EDELFOSINE] | > 350 µM | 5.5 µM (≈ 2.88 µg/mL) | 100% | 100% | 83% | 13% | 0% | 0% | > 350 µM | 44 µM (≈ 23 µg/mL) | 11 µM (≈ 5.76 µg/mL) |  |  |  |  | 
CCCCCCCCCCCCCCCCCCOP(=O)([O-])OCC[P+](C)(C)C | 2.75 µM (≈ 1.24 µg/mL) | 2.75 µM (≈ 1.24 µg/mL) |  | 100% | 97% | 40% | 2% | 0% |  |  |  |  |  | inactive | Active | Active
CCCCCCCCCOC(=O)CCCCCOP(=O)([O-])OCC[N+](C)(C)C | 175 µM (≈ 74.1 µg/mL) | > 350 µM |  | 0% | 0% | 0% | 0% | 0% |  |  |  |  |  |  |  | 
CCCCCCCCCCCCCCCCCC(=O)NCC(COP(=O)([O-])OCC[N+](C)(C)C)OC (stereo not drawn) | 22 µM (≈ 11.8 µg/mL) | 5.5 µM (≈ 2.95 µg/mL) | 100% | 100% | 56% | 5% | 0% | 0% | > 350 µM | 44 µM (≈ 23.6 µg/mL) | 11 µM (≈ 5.9 µg/mL) | 22 µM (≈ 11.8 µg/mL) |  |  |  | 
CC(C)[C@H](NC(=O)CCCCCOP(=O)([O-])OCC[N+](C)(C)C)C(N)=O | > 350 µM | > 350 µM | 0% | 0% | 0% | 0% | 0% | 0% |  |  |  |  |  |  |  | 
CCCCCCCCCCCCCCCCCCOP(=O)([O-])OCC[N+](C)(C)C [OCTADECYLPHOSPHONOCHOLINE] | 1.4 µM (≈ 0.61 µg/mL) | 1.4 µM (≈ 0.61 µg/mL) | 100% | 100% | 92% | 60% | 0% | 0% | > 350 µM | 22 µM (≈ 9.58 µg/mL) | 22 µM (≈ 9.58 µg/mL) |  |  | inactive | Active | Active
CC1(C)S[C@@H]2[C@H](NC(=O)[C@H](N)c3ccc(O)cc3)C(=O)N2[C@H]1C(=O)O [AMOXICILLIN] |  |  |  |  |  |  |  |  | 22 µM (≈ 8.04 µg/mL) | 0.7 µM (≈ 0.256 µg/mL) |  |  |  |  |  | 
CCCCCCCCCCCCCCCCCCOCC(O)COP(=O)([O-])OCC[N+](C)(C)C (stereo not drawn) | 88 µM (≈ 44.9 µg/mL) | > 350 µM | 100% | 100% | 86% | 10% | 0% | 0% | > 350 µM | 22 µM (≈ 11.2 µg/mL) | 11 µM (≈ 5.61 µg/mL) | 11 µM (≈ 5.61 µg/mL) |  |  |  | 
CCCCC(CC)CNC(=O)CCCCCOP(=O)([O-])OCC[N+](C)(C)C (stereo not drawn) | > 350 µM | > 350 µM |  | 0% | 0% | 0% | 0% | 0% | > 350 µM | > 350 µM | > 350 µM | > 350 µM |  |  |  | 
CCCCCCCC/C=C\CCCCCCCCCCCCOP(=O)([O-])OCC[N+](C)(C)C [ERUFOSINE] | 22 µM (≈ 10.8 µg/mL) | 44 µM (≈ 21.5 µg/mL) | 100% | 90% | 15% | 0% | 0% | 0% | > 350 µM | > 350 µM | 22 µM (≈ 10.8 µg/mL) | 11 µM (≈ 5.39 µg/mL) |  |  |  | 
CCCCCCCCCNC(=O)CCCCCOP(=O)([O-])OCC[N+](C)(C)C | > 350 µM | > 350 µM |  | 0% | 0% | 0% | 0% | 0% | > 350 µM | > 350 µM | > 350 µM | > 350 µM | inactive | inactive |  | 
C[C@@H]1[C@H](O)[C@@H](C)/C=C/C=C/C=C/C=C/C=C/C=C/C=C/[C@H](O[C@@H]2O[C@H](C)[C@@H](O)[C@H](N)[C@@H]2O)C[C@@H]2O[C@](O)(C[C@@H](O)C[C@@H](O)[C@H](O)CC[C@@H](O)C[C@@H](O)CC(=O)O[C@H]1C)C[C@H](O)[C@H]2C(=O)O [AMPHOTERICIN B] | 0.54 µM (≈ 0.499 µg/mL) | 0.54 µM (≈ 0.499 µg/mL) |  |  |  |  |  |  |  |  |  |  |  |  |  | 
CN[C@H](CC(C)C)C(=O)N[C@H]1C(=O)N[C@@H](CC(N)=O)C(=O)N[C@H]2C(=O)N[C@H]3C(=O)N[C@H](C(=O)N[C@H](C(=O)O)c4cc(O)cc(O)c4-c4cc3ccc4O)[C@H](O)c3ccc(c(Cl)c3)Oc3cc2cc(c3O[C@@H]2O[C@H](CO)[C@@H](O)[C@H](O)[C@H]2O[C@H]2C[C@](C)(N)[C@H](O)[C@H](C)O2)Oc2ccc(cc2Cl)[C@H]1O [VANCOMYCIN] |  |  |  |  |  |  |  |  |  |  |  | 0.7 µM (≈ 1.01 µg/mL) |  |  |  | 
